Reference: the supplement of paper PMC5908809

Experiments:
[1] = tested on: normal NK cells expanded with K562-aAPC; experiment: percent inhibition of viability; higher = more inhibition; conditions: 72 h, IL-2 2.5 ng/mL
Method: (§1)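 Drug sensitivity and resistance testing on K562-aAPC-expanded normal NK cells: 5 concentrations (10-fold steps over a 10,000-fold range), 72 h at 37 °C, viability by CellTiter-Glo normalised to DMSO and benzethonium chloride controls; DSS from the fitted curve.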

[2] = tested on: DERL-7 (IL-2 2.5 ng/mL); experiment: as above; conditions: 72 h
[3] = tested on: IMC-1 (IL-2 20 ng/mL); experiment: as above; conditions: 72 h
[4] = tested on: KAI3 (IL-2 2.5 ng/mL); experiment: as above; conditions: 72 h
[5] = tested on: KHYG-1 (IL-2 2.5 ng/mL); experiment: as above; conditions: 72 h
[6] = tested on: NK-92 (IL-2 2.5 ng/mL); experiment: as above; conditions: 72 h
[7] = tested on: NK-YS (IL-2 2.5 ng/mL); experiment: as above; conditions: 72 h
[8] = tested on: NKL (IL-2 2.5 ng/mL); experiment: as above; conditions: 72 h
[9] = tested on: SNK-6 (IL-2 2.5 ng/mL); experiment: as above; conditions: 72 h
[10] = tested on: YT (IL-2 2.5 ng/mL); experiment: as above; conditions: 72 h
[11] = tested on: normal primary NK cells, pool 1 (3 donors) (IL-2 2.5 ng/mL); experiment: as above; conditions: 72 h
[12] = tested on: normal primary NK cells, pool 1 (3 donors), resting (IL-2 0 ng/mL); experiment: as above; conditions: 72 h
[13] = tested on: normal primary NK cells, pool 2 (3 donors) (IL-2 2.5 ng/mL); experiment: as above; conditions: 72 h
[14] = tested on: normal primary NK cells, pool 3 (3 donors) (IL-2 2.5 ng/mL); experiment: as above; conditions: 72 h
[15] = tested on: normal NK cells expanded with K562-aAPC; experiment: drug sensitivity score (DSS) (DSS units); higher = more sensitive; extreme values may be limits of the assay; conditions: 72 h; IL-2 2.5 ng/mL
Method: as §1

[16] = tested on: DERL-7 (IL-2 2.5 ng/mL); experiment: as above; conditions: 72 h
[17] = tested on: IMC-1 (IL-2 20 ng/mL); experiment: as above; conditions: 72 h
[18] = tested on: KAI3 (IL-2 2.5 ng/mL); experiment: as above; conditions: 72 h
[19] = tested on: KHYG-1 (IL-2 2.5 ng/mL); experiment: as above; conditions: 72 h
[20] = tested on: NK-92 (IL-2 2.5 ng/mL); experiment: as above; conditions: 72 h
[21] = tested on: NK-YS (IL-2 2.5 ng/mL); experiment: as above; conditions: 72 h
[22] = tested on: NKL (IL-2 2.5 ng/mL); experiment: as above; conditions: 72 h
[23] = tested on: SNK-6 (IL-2 2.5 ng/mL); experiment: as above; conditions: 72 h
[24] = tested on: YT (IL-2 2.5 ng/mL); experiment: as above; conditions: 72 h
[25] = tested on: normal primary NK cells, pool 1 (3 donors) (IL-2 2.5 ng/mL); experiment: as above; conditions: 72 h
[26] = tested on: normal primary NK cells, pool 1 (3 donors), resting (IL-2 0 ng/mL); experiment: as above; conditions: 72 h
[27] = tested on: normal primary NK cells, pool 2 (3 donors) (IL-2 2.5 ng/mL); experiment: as above; conditions: 72 h
[28] = tested on: normal primary NK cells, pool 3 (3 donors) (IL-2 2.5 ng/mL); experiment: as above; conditions: 72 h

CCc1cncnc1N1CCN(Cc2nc3ccc(C(F)(F)F)cc3[nH]2)CC1 (max concentration tested 10000 nM)
percent inhibition of viability [%]
Conditions | 1 nM | 10 nM | 100 nM | 1000 nM | 10000 nM
[1] | -4.68 | -5.08 | -4.29 | 0.89 | 5
[2] | 3.43 | 7.18 | -5.16 | -1.27 | 14.8
[3] | -6.13 | -3.43 | 3.72 | 11.3 | 90
[4] | -0.12 | -5.66 | -9.54 | -2.26 | 28.4
[5] | -4.31 | -8.31 | -0.12 | 17.2 | 49.7
[6] | -1.05 | 10.1 | 6.83 | 20.4 | 62.3
[7] | -2.32 | -5.55 | -2.77 | 9.57 | 47.8
[8] | -11.3 | -11 | -6.3 | 10.8 | 60.8
[9] | -7.09 | -9.08 | 8.29 | 30.2 | 30.4
[10] | -1.53 | -2.69 | 2.06 | 11.5 | 41.9
[11] | -2.5 | 14.2 | 12.3 | 11.8 | 63.6
[12] | -8.97 | 13.4 | 10 | 13.6 | 75.6
[13] | -7.09 | 4.46 | 7.58 | 8.67 | 44.9
[14] | -9.93 | 7.71 | 7.04 | -6.89 | 26.4

Conditions | drug sensitivity score
[15] | 0
[16] | 0.17
[17] | 6.88
[18] | 1.03
[19] | 5.08
[20] | 5.84
[21] | 4.07
[22] | 5.1
[23] | 6.35
[24] | 3.86
[25] | 5.45
[26] | 6.44
[27] | 3.74
[28] | 0.75

O=P1(N(CCCl)CCCl)NCCCO1 (stereo not given) [Cyclophosphamide] (max concentration tested 40000 nM)
percent inhibition of viability [%]
Conditions | 4 nM | 40 nM | 400 nM | 4000 nM | 40000 nM
[1] | 1.23 | -1.48 | -6.12 | -0.37 | 32.1
[2] | -4.46 | -3.5 | -1.09 | -0.28 | 5.07
[3] | -3.57 | -3.7 | -1.67 | -7.03 | -3.85
[4] | -3.45 | 3.79 | 4.87 | 17.2 | 40.9
[5] | -3.97 | -6.87 | -6.42 | -6.18 | -3.6
[6] | -18.2 | -9.83 | -4.39 | -1.7 | 10.6
[7] | -5.26 | -6.65 | -2.31 | -4.3 | 5.51
[8] | -11.1 | -8.19 | -4.09 | -3.02 | 8.99
[9] | 7.84 | -6.82 | 9.06 | -4.15 | 10.8
[10] | -4.55 | -6.6 | -7.59 | -8.95 | -8.31
[11] | -10.4 | -10.4 | -10.4 | 1.26 | 30.9
[12] | -3.08 | -15.2 | -6.52 | 18.4 | 64.8
[13] | -11 | -0.5 | -0.82 | 2.11 | 21.8
[14] | -7.23 | -5.67 | -9.18 | 0.96 | 16.7

Conditions | drug sensitivity score
[15] | 1.42
[16] | 0
[17] | 0
[18] | 3.77
[19] | 0
[20] | 0
[21] | 0
[22] | 0
[23] | 0
[24] | 0
[25] | 1.52
[26] | 6.32
[27] | 1.01
[28] | 0.44

N#CC[C@H](C1CCCC1)n1cc(-c2ncnc3[nH]ccc23)cn1 [Ruxolitinib] (max concentration tested 10000 nM)
percent inhibition of viability [%]
Conditions | 1 nM | 10 nM | 100 nM | 1000 nM | 10000 nM
[1] | 2.08 | 18.6 | 65.1 | 97.8 | 98.6
[2] | 9.24 | 20.8 | 64.2 | 101 | 101
[3] | 1.77 | -5.31 | 5.62 | 58.7 | 99.6
[4] | 18.2 | 33.2 | 84.8 | 97.7 | 101
[5] | 7.19 | 19.2 | 94.1 | 108 | 108
[6] | 14.7 | 23.2 | 54.9 | 93.3 | 105
[7] | 3.29 | 10.2 | 48.2 | 68.6 | 84.1
[8] | -1.94 | 49.5 | 75.1 | 94.7 | 101
[9] | 7.33 | 12.7 | 73.5 | 73.9 | 85.4
[10] | 9.67 | 13.1 | 30.9 | 75.8 | 84.3
[11] | 2.57 | 6.3 | 49.3 | 58 | 74.3
[12] | 7.5 | -6.83 | 11.8 | -24.4 | 27.4
[13] | -1.35 | 14.5 | 50.1 | 65 | 71.7
[14] | 3.79 | 6.55 | 43 | 64.5 | 74.2

Conditions | drug sensitivity score
[15] | 26.7
[16] | 27.1
[17] | 12.6
[18] | 32.2
[19] | 32.2
[20] | 25.6
[21] | 19.8
[22] | 32.6
[23] | 25.9
[24] | 17.8
[25] | 18.5
[26] | 0.6
[27] | 19.8
[28] | 18

CCN1CCN(Cc2ccc(Nc3ncc(F)c(-c4cc(F)c5nc(C)n(C(C)C)c5c4)n3)nc2)CC1 [Abemaciclib] (max concentration tested 2500 nM)
percent inhibition of viability [%]
Conditions | 0.25 nM | 2.5 nM | 25 nM | 250 nM | 2500 nM
[1] | 2.02 | -3.3 | 4.81 | 17.7 | 41.3
[2] | -4.64 | -2.09 | 8.58 | 51.3 | 73.9
[3] | 1.3 | -5.47 | -5.79 | -18.8 | 97.5
[4] | -4.55 | -3.34 | -6.9 | -4.76 | 11.8
[5] | -1.33 | -1.51 | -0.04 | 42.8 | 79.8
[6] | -9.23 | 0.87 | -2.31 | 7.25 | 42
[7] | -3.7 | -3.12 | 0.09 | 18 | 95
[8] | -11.9 | -8.91 | -19.3 | -11.8 | 38
[9] | 22.8 | 13.2 | 4.72 | 15.4 | 29.8
[10] | -0.11 | 3.29 | -1.68 | 5.51 | 7.94
[11] | -4.8 | -6.62 | -2.33 | 9.08 | 24.4
[12] | -12.7 | -5.25 | -10.3 | -47.3 | -83.7
[13] | -7.88 | -7.14 | 0.77 | 1.36 | 50.7
[14] | -10.9 | -4.53 | -8.73 | -3.71 | 11.1

Conditions | drug sensitivity score
[15] | 3.89
[16] | 10.8
[17] | 4.41
[18] | 0.01
[19] | 9.69
[20] | 3.33
[21] | 8.19
[22] | 1.33
[23] | 0.14
[24] | 0
[25] | 2.05
[26] | 0.89
[27] | 2.85
[28] | 0

CNC(=O)c1ccc(-c2cnc3ncc(Cc4ccc5ncccc5c4)n3n2)cc1F [NVP-INC280] (max concentration tested 1000 nM)
percent inhibition of viability [%]
Conditions | 0.1 nM | 1 nM | 10 nM | 100 nM | 1000 nM
[1] | 3.07 | -1.65 | 0.35 | 12.4 | 9.59
[2] | -5.28 | 4.26 | -9.16 | -6.92 | -4.89
[3] | 0.35 | -0.99 | 7.3 | 10.2 | 14.7
[4] | -3.13 | -7.87 | 2.81 | 8.6 | 10.3
[5] | 0.53 | 0.71 | 6.28 | 8.45 | 7.71
[6] | -4.47 | -11.1 | 1.26 | -6.37 | 7.6
[7] | -3.18 | -2.55 | 2.09 | 4.91 | 7.49
[8] | -14.8 | -12 | -3.62 | -0.32 | 1.94
[9] | 1.66 | -4.69 | 8.68 | 23.7 | 31.8
[10] | -0.04 | -0.12 | 2.87 | 3.88 | 14.8
[11] | -3.26 | -0.85 | -0.05 | -8.05 | -1.86
[12] | -4.36 | 11.4 | -16.1 | -15.8 | -5.95
[13] | -5.16 | -9.82 | 0.45 | -1.98 | 7.71
[14] | -4.63 | -9.7 | -8.57 | -10.9 | -0.53

Conditions | drug sensitivity score
[15] | 0.67
[16] | 0
[17] | 0.81
[18] | 0.03
[19] | 0
[20] | 0
[21] | 0
[22] | 0
[23] | 4.62
[24] | 0.42
[25] | 0
[26] | 0
[27] | 0
[28] | 0
